Laboratory results: patent US20250145606A1 (Arcus Biosciences, Inc., priority 2023, published 2025)
Like-named read-outs stand apart in the source and are kept apart here.

Key:
[1] = target: c-Kit (Homo sapiens (Human), UniProt P10721); assay: Inhibition of c-Kit kinase activity (HTRF KinEASE-TK); format: biochemical; details: biochemical
Method in brief: (§1)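 Recombinant kinases (2 nM CSF1R and c-Kit, 10 nM PDGFRα/β, 2× working) preincubated 1 h with compound in 50 mM HEPES pH 7.4, 5 mM MgCl2 (c-Kit) or 10 mM (others), 2 mM MnCl2; 2× ATP: c-Kit 16 μM, PDGFRα 1 μM, PDGFRβ 40 μM, CSF1R 20 μM. 120 min reaction at rt; TR-FRET 665/620 nm; IC50 by 4-parameter fit.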

[2] = target: PDGFRα (Homo sapiens (Human), UniProt P16234); assay: Inhibition of PDGFRα kinase activity (HTRF KinEASE-TK); details: biochemical
Chain of PDGFRα (P16234 24-1089): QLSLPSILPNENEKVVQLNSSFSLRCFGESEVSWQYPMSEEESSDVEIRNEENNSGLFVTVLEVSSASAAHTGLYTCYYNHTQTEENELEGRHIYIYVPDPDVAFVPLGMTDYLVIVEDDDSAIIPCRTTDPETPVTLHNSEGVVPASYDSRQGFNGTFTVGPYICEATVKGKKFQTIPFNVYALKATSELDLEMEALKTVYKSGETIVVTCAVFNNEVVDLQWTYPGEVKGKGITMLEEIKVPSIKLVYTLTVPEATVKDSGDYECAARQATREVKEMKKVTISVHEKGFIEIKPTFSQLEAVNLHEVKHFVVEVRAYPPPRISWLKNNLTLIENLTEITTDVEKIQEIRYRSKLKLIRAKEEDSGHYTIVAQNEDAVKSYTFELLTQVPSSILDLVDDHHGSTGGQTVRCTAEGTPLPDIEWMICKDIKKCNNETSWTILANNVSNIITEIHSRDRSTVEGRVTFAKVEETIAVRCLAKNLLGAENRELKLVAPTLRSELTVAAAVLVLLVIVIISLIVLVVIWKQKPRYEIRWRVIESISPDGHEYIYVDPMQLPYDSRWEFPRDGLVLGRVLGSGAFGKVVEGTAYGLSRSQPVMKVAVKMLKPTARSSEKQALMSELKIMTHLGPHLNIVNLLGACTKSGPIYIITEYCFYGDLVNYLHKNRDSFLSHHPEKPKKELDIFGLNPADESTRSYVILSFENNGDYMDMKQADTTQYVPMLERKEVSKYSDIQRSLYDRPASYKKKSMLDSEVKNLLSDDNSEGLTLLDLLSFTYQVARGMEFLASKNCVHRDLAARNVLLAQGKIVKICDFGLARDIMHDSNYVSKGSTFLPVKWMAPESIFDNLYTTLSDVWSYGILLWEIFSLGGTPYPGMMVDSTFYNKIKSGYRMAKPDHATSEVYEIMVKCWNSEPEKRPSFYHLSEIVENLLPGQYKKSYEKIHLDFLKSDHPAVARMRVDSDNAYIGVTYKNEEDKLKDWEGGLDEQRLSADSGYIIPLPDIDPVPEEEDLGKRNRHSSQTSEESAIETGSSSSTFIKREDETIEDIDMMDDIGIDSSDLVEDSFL
Method in brief: as §1

[3] = target: PDGFRβ (Homo sapiens (Human), UniProt P09619); assay: Inhibition of PDGFRβ kinase activity (HTRF KinEASE-TK); details: biochemical
Chain of PDGFRβ (P09619 33-1106): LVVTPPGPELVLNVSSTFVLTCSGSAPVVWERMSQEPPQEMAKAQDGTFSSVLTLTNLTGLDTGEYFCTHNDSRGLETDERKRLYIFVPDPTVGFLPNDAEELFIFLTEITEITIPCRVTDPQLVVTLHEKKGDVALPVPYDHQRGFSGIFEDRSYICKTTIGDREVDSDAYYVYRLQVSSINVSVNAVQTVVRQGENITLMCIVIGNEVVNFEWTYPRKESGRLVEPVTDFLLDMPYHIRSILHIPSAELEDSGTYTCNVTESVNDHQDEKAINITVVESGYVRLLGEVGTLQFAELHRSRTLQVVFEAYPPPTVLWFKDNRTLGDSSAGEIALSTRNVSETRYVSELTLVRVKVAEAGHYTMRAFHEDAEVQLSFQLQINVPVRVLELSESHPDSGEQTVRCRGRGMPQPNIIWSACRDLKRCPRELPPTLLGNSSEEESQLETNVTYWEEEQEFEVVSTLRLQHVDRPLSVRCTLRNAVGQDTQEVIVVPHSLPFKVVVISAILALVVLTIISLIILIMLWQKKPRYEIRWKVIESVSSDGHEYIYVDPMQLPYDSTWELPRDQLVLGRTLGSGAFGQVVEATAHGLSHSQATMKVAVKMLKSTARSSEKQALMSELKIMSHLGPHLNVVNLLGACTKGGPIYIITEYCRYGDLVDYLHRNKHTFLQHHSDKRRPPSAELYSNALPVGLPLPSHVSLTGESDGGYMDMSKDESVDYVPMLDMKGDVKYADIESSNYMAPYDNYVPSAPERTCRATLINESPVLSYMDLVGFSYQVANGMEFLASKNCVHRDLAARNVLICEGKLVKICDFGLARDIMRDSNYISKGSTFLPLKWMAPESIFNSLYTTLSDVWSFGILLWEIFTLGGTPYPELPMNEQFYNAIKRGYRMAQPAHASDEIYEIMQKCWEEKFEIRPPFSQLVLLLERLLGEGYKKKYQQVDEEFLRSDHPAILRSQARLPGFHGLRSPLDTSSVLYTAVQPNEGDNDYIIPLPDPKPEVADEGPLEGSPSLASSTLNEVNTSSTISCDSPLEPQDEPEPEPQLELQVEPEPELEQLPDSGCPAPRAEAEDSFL
Method in brief: as §1

[4] = target: CSF1R (Homo sapiens (Human), UniProt P07333); assay: Inhibition of CSF1R kinase activity (HTRF KinEASE-TK); details: biochemical
Chain of CSF1R (P07333 20-972): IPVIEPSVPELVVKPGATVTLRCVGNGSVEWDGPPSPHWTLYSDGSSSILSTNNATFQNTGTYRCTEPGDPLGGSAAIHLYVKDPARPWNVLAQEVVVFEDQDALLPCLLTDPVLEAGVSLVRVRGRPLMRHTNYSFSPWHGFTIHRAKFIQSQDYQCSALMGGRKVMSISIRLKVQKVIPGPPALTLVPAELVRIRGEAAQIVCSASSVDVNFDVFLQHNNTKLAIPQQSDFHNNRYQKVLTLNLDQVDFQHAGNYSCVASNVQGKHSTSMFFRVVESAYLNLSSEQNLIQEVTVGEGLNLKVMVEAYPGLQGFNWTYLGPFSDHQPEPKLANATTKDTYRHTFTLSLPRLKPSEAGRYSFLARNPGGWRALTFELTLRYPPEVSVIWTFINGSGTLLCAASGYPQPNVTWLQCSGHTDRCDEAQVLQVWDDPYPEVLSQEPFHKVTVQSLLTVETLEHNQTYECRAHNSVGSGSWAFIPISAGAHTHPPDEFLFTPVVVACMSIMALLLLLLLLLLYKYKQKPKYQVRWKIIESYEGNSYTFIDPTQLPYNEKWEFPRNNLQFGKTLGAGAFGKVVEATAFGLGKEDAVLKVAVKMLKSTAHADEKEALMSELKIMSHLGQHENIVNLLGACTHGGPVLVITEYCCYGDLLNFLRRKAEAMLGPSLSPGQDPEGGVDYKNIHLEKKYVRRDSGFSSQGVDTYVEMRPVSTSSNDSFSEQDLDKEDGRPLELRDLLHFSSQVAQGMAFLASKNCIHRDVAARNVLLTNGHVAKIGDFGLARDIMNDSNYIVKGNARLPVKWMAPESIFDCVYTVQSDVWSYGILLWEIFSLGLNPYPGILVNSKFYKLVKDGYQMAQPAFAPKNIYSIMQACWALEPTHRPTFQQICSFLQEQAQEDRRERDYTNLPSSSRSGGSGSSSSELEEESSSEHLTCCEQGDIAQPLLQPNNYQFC
Method in brief: as §1

[5] = target: FLT3 (Homo sapiens (Human), UniProt P36888); assay: Inhibition of FLT3 kinase activity (HTRF KinEASE-TK); format: biochemical; details: biochemical
Chain of FLT3 (P36888 27-993): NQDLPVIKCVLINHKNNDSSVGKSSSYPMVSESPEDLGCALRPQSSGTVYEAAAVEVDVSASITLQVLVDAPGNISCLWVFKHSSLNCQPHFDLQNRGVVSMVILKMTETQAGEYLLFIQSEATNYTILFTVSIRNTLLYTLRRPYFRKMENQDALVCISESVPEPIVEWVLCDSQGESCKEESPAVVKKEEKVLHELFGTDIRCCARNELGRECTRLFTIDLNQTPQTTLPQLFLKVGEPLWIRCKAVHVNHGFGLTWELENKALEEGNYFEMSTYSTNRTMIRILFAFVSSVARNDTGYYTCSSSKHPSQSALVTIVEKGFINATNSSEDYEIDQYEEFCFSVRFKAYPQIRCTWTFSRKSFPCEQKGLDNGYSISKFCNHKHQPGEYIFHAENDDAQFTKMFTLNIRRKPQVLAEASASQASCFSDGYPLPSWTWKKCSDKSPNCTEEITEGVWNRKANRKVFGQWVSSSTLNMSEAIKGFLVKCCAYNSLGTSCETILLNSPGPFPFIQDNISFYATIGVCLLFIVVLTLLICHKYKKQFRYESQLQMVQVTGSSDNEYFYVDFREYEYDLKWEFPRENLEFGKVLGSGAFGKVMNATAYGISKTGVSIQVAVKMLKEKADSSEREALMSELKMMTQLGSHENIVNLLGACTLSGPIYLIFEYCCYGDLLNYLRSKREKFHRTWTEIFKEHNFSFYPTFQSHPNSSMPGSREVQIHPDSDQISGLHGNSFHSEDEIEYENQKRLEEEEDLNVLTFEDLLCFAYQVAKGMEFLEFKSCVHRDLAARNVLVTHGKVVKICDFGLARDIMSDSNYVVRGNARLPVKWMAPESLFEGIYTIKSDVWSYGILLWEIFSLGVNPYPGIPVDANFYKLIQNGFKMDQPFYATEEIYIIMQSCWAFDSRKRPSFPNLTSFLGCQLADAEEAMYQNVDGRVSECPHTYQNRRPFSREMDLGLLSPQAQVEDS
Method in brief: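 FLT3 tyrosine kinase activity was measured with the HTRF KinEASE-TK kit by following phosphorylation of a biotinylated TK peptide. After the 45 min reaction, 10 μL of detection mix was added: 0.2 μM (2×) Streptavidin-XL665 and 2 μM (2×) TK-Antibody-Cryptate in detection buffer. After 60 min, TR-FRET was read on an Envision as the 665 nm/620 nm emission ratio with 320 nm excitation.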

[6] = test system: Phospho-KIT (Y703) in M07e cells; assay: Phospho-KIT (Y703) cellular assay in M07e cells; format: cell-based; details: read-out: M07e Cell IC50
Method in brief: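 Serum-starved M07e cells preincubated 50 min at 37° C with 11-point half-log compound titration, then stimulated 10 min with SCF at 90.9 ng/mL final. Fixed, permeabilized cells stained for phospho-KIT Y703 and read by flow cytometry (live-gated geometric mean); IC50 by 4-parameter fit normalized to DMSO and positive control.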

[7] = M-07e, Phospho-KIT (Y703), M07e cells

Chain of c-Kit (P10721 26-976): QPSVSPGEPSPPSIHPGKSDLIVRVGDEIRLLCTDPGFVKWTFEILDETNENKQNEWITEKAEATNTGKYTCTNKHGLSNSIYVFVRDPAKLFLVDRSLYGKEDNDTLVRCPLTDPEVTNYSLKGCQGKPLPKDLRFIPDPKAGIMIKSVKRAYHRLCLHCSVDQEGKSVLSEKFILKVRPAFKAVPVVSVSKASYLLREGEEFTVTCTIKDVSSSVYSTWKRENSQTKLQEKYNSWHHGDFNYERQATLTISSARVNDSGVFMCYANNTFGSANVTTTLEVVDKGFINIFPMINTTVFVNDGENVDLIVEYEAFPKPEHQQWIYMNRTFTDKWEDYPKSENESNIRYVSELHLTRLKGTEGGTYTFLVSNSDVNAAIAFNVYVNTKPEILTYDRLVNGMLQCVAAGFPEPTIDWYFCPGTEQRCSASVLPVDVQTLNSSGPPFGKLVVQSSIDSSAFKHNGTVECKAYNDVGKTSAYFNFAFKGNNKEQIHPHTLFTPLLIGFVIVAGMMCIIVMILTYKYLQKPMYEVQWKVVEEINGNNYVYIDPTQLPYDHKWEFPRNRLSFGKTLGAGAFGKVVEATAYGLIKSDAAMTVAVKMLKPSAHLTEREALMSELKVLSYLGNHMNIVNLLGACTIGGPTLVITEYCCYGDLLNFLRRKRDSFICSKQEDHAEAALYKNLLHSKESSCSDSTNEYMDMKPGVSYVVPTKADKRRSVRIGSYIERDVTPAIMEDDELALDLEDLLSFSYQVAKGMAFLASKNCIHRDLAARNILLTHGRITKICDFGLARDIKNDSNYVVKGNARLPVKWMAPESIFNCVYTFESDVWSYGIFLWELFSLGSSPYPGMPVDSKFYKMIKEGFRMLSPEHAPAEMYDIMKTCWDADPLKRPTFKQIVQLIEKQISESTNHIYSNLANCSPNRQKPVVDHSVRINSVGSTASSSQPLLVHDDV

Row | Structure (SMILES) | IC50 ([1]; HTRF KinEASE-TK) [nM] | IC50 ([2]; HTRF KinEASE-TK) [nM] | IC50 ([3]; HTRF KinEASE-TK) [nM] | IC50 ([4]; HTRF KinEASE-TK) [nM] | IC50 ([5]; HTRF KinEASE-TK) [nM] | IC50 [6, 7] [nM] | IC50 ([6]; M-07e) [nM] | IC50 ([6]; Phospho-KIT (Y703), M07e cells) [nM] | IC50 [6] [nM] | IC50 [1] [nM] | IC50 [2] [nM] | IC50 [3] [nM] | IC50 [4] [nM] | IC50 [5] [nM] | IC50 ([6]; M-07e, phospho-KIT (Y703), SCF-stimulated M07e cells) [nM]
1 | COCc1ccc(NC(=O)c2cc(NC(=O)c3cnc(N)s3)c(F)cc2F)nc1 [Example 215, 2-Amino-N-[2,4-difluoro-5-[[5-(methoxymethyl)pyridin-2-yl]carbamoyl]phenyl]-1,3-thiazole-5-carboxamide] | 100 to 1000 | > 1000 | > 1000 | > 1000 | > 1000 | > 1000 |  |  |  |  |  |  |  |  | 
2 | Nc1ncc(C(=O)Nc2cc(C(=O)Nc3ccc(OCC(F)F)cn3)c(F)cc2F)s1 [Example 213, 2-Amino-N-[5-[[5-(2,2-difluoroethoxy)pyridin-2-yl]carbamoyl]-2,4-difluorophenyl]-1,3-thiazole-5-carboxamide] | < 100 | > 1000 | > 1000 | > 1000 | > 1000 | < 100 |  |  |  |  |  |  |  |  | 
3 | Nc1ncc(C(=O)Nc2cc(C(=O)Nc3cnc(C4CC4)nc3)c(F)cc2Cl)s1 [Example 204, 2-Amino-N-[2-chloro-5-[(2-cyclopropylpyrimidin-5-yl)carbamoyl]-4-fluorophenyl]-1,3-thiazole-5-carboxamide] | < 100 | 100 to 1000 | 100 to 1000 | 100 to 1000 | > 1000 | < 100 |  |  |  |  |  |  |  |  | 
4 | Cc1ncc(C(=O)Nc2cc(C(=O)Nc3cncc(COC(F)F)c3)c(F)cc2C)s1 [Example 80, N-[5-[[5-(difluoromethoxymethyl)pyridin-3-yl]carbamoyl]-4-fluoro-2-methylphenyl]-2-methyl-1,3-thiazole-5-carboxamide] | < 100 | > 1000 | > 1000 | > 1000 | > 1000 |  | < 100 |  |  |  |  |  |  |  | 
5 | Cc1cc(F)c(C(=O)Nc2ccc(OC3CC3)cn2)cc1NC(=O)c1cnc(NC(=O)C2CC2)s1 [Example 238, 2-(Cyclopropanecarbonylamino)-NV-[5-[(5-cyclopropyloxypyridin-2-yl)carbamoyl]-4-fluoro-2-methylphenyl]-1,3-thiazole-5-carboxamide] | < 100 | 100 to 1000 | < 100 | 100 to 1000 | > 1000 |  |  | < 100 |  |  |  |  |  |  | 
6 | Cc1cc(F)c(C(=O)N[C@H]2CCOC2)cc1NC(=O)c1cnc(NC(=O)N2CCC2)s1 [Example 102, 2-(Azetidine-1-carbonylamino)-N-[4-fluoro-2-methyl-5-[[(3S)-oxolan-3-yl]carbamoyl]phenyl]-1,3-thiazole-5-carboxamide] | < 100 | > 1000 | > 1000 | 100 to 1000 | > 1000 | 100 to 1000 |  |  |  |  |  |  |  |  | 
7 | Cc1cc(F)c(C(=O)Nc2ccc(OC3CC3)nn2)cc1NC(=O)c1cnc(N)s1 [Example 258, 2-Amino-N-[5-[(6-cyclopropyloxypyridazin-3-yl)carbamoyl]-4-fluoro-2-methylphenyl]-1,3-thiazole-5-carboxamide] | < 100 | 100 to 1000 | 100 to 1000 | 100 to 1000 | > 1000 | < 100 |  |  |  |  |  |  |  |  | 
8 | CO[C@H]1C[C@@H](n2ccc(NC(=O)c3cc(NC(=O)c4cnc(N)s4)c(C)cc3F)n2)C1 [Example 185, 2-Amino-N-[4-fluoro-5-[[1-(cis-3-methoxycyclobutyl)pyrazol-3-yl]carbamoyl]-2-methylphenyl]-1,3-thiazole-5-carboxamide] | < 100 | > 1000 | > 1000 | > 1000 | > 1000 | < 100 |  |  |  |  |  |  |  |  | 
9 | CC(C)Oc1ccc(NC(=O)c2cc(NC(=O)c3cnc(N)s3)c(F)cc2F)nc1 [Example 218, 2-Amino-N-[2,4-difluoro-5-[(5-propan-2-yloxypyridin-2-yl)carbamoyl]phenyl]-1,3-thiazole-5-carboxamide] | < 100 | > 1000 | > 1000 | > 1000 | > 1000 | < 100 |  |  |  |  |  |  |  |  | 
10 | Cc1cc(F)c(C(=O)Nc2ccc(OC3(C)CC3)cn2)cc1NC(=O)c1cnc(N)s1 [Example 147, 2-Amino-N-[4-fluoro-2-methyl-5-[[5-(1-methylcyclopropyl)oxypyridin-2-yl]carbamoyl]phenyl]-1,3-thiazole-5-carboxamide] | < 100 | 100 to 1000 | < 100 | 100 to 1000 | > 1000 | < 100 |  |  |  |  |  |  |  |  | 
11 | Cc1cc(F)c(C(=O)Nc2ccc3c(n2)COCC3)cc1NC(=O)c1cnc(N)s1 [Example 114, 2-Amino-N-[5-(6,8-dihydro-5H-pyrano[3,4-b]pyridin-2-ylcarbamoyl)-4-fluoro-2-methylphenyl]-1,3-thiazole-5-carboxamide] | < 100 | 100 to 1000 | 100 to 1000 | 100 to 1000 | > 1000 | < 100 |  |  |  |  |  |  |  |  | 
12 | Cc1cc(F)c(C(=O)Nc2ccn(C(F)F)n2)cc1NC(=O)c1cnc(N)s1 [Example 181, 2-Amino-N-[5-[[1-(difluoromethyl)pyrazol-3-yl]carbamoyl]-4-fluoro-2-methylphenyl]-1,3-thiazole-5-carboxamide] | < 100 | > 1000 | > 1000 | > 1000 | > 1000 | < 100 |  |  |  |  |  |  |  |  | 
13 | CO[C@H]1C[C@@H](NC(=O)c2cc(NC(=O)c3cnc(N)s3)c(C)cc2F)C1 [Example 123, 2-Amino-N-[4-fluoro-5-[(3-methoxycyclobutyl)carbamoyl]-2-methylphenyl]-1,3-thiazole-5-carboxamide] | < 100 | > 1000 | > 1000 | > 1000 | > 1000 | < 100 |  |  |  |  |  |  |  |  | 
14 | Cc1cc(F)c(C(=O)Nc2ccn(CC(F)F)n2)cc1NC(=O)c1cnc(N)s1 [Example 148, 2-Amino-N-[5-[[1-(2,2-difluoroethyl)pyrazol-3-yl]carbamoyl]-4-fluoro-2-methylphenyl]-1,3-thiazole-5-carboxamide] | < 100 | > 1000 | 100 to 1000 | > 1000 | > 1000 | < 100 |  |  |  |  |  |  |  |  | 
15 | Nc1ncc(C(=O)Nc2cc(C(=O)Nc3ccc(C(F)(F)F)cn3)c(F)cc2F)s1 [Example 216, 2-Amino-N-[2,4-difluoro-5-[[5-(trifluoromethyl)pyridin-2-yl]carbamoyl]phenyl]-1,3-thiazole-5-carboxamide] | < 100 | > 1000 | > 1000 | 100 to 1000 | > 1000 | < 100 |  |  |  |  |  |  |  |  | 
16 | COCc1ccc(NC(=O)c2cc(NC(=O)c3cnc(N)s3)c(Cl)cc2F)nc1 [Example 202, 2-Amino-N-[2-chloro-4-fluoro-5-[[5-(methoxymethyl)pyridin-2-yl]carbamoyl]phenyl]-1,3-thiazole-5-carboxamide] | < 100 | > 1000 | > 1000 | > 1000 | > 1000 | < 100 |  |  |  |  |  |  |  |  | 
17 | COCC1(c2ccc(NC(=O)c3cc(NC(=O)c4cnc(N)s4)c(C)cc3F)nc2)CC1 [Example 244] | < 100 | > 1000 | 100 to 1000 | 100 to 1000 | > 1000 |  |  |  | < 100 |  |  |  |  |  | 
18 | COc1ccc(NC(=O)c2cc(NC(=O)c3cnc(N)s3)c(C)cc2F)cc1 [Example 230, 2-Amino-N-[4-fluoro-5-[(4-methoxyphenyl)carbamoyl]-2-methylphenyl]-1,3-thiazole-5-carboxamide] | < 100 | 100 to 1000 | 100 to 1000 | 100 to 1000 | > 1000 | < 100 |  |  |  |  |  |  |  |  | 
19 | Cc1ncc(C(=O)Nc2cc(C(=O)Nc3cnc(OCC(F)F)cn3)c(F)cc2C)s1 [Example 86, N-{5-[N-5-(2,2-difluoroethoxy)-2-pyrazinylcarbamoyl]-4-fluoro-2-tolyl}-2-methyl-1,3-thiazole-5-carboxamide] | < 100 | 100 to 1000 | > 1000 | > 1000 | > 1000 | < 100 |  |  |  |  |  |  |  |  | 
20 | Cc1cc(F)c(C(=O)NCC2(F)CCC2)cc1NC(=O)c1cnc(N)s1 [Example 192, 2-amino-N-[4-fluoro-5-[(1-fluorocyclobutyl)methylcarbamoyl]-2-methylphenyl]-1,3-thiazole-5-carboxamide] | < 100 | > 1000 | 100 to 1000 | > 1000 | > 1000 | < 100 |  |  |  |  |  |  |  |  | 
21 | COCc1ccc(NC(=O)c2cc(NC(=O)c3cnc(N)s3)c(C)cc2F)nc1 [Example 10, 2-Amino-N-[4-fluoro-5-[[5-(methoxymethyl)pyridin-2-yl]carbamoyl]-2-methylphenyl]-1,3-thiazole-5-carboxamide] |  |  |  |  |  |  |  |  |  | < 100 | > 1000 | > 1000 | > 1000 | > 1000 | < 100
